Results reported in article PMC2747051 (Biochemistry, 2009).

How the values were obtained:
[1] = test system: MoeE5 (Streptomyces viridosporus); assay: anion-exchange HPLC; format: biochemical; settings: 1 mM UDP-GlcUA, 1 uM enzyme, 20 mM Tris-HCl pH 7.5, 37 °C, 2 h
[2] = test system: MoeGT1 (Streptomyces viridosporus); assay: LC/MS conversion time course; format: biochemical; settings: donor 1 mM, 40 uM compound 7, 800 nM enzyme, 5 mM MgCl2, pH 7.5, 37 °C

SMILES: O=C(O)[C@H]1O[C@H](OP(=O)(O)OP(=O)(O)OC[C@H]2O[C@@H](n3ccc(=O)[nH]c3=O)[C@H](O)[C@@H]2O)[C@H](O)[C@@H](O)[C@H]1O [UDP-GalUA]
- anion-exchange HPLC [1]: we conclude that MoeE5 epimerizes UDP-GlcUA to UDP-GalUA
- LC/MS conversion time course [2]: showed a clear preference for UDP-GalUA over UDP-GlcUA
